In the experiment the target is human RORγt LBD (Homo sapiens (Human), UniProt P51449). Briefly: RORγt reporter assay (GAL4-RORγt LBD luciferase in HEK293T cells). The format is cell-based. The note with it: for IC50: HEK293T cells, 24 hours compound treatment; for inhibition at 6 µM: HEK-293T, read-out: RORγt reporter Assay, % inhibition @ 6 μM, HEK293T cells, 6 μM. The text has this: A reporter assay was used to test functional activity of RORγt modulatory compounds on transcriptional activation driven by the RORγt LBD. Cells used in the assay were co-transfected with two constructs. The first construct, pBIND-RORγt LBD, contained the wild type human RORγt LBD fused to the DNA binding domain of the GAL4 protein. The second construct, pGL4.31 (Promega Cat no. C935A), contained multiple GAL4 responsive DNA elements upstream of firefly luciferase. […] The mutant construct was called pBIND-RORγt-AF2.
Chain of human RORγt LBD (P51449 258-518): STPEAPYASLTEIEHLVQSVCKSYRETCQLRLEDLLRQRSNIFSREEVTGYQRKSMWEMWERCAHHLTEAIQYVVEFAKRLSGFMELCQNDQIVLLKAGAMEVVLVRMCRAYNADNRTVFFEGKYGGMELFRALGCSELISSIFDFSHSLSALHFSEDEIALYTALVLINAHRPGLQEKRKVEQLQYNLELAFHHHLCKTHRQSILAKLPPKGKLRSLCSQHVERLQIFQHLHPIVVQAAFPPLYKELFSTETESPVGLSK
The pBIND vector contains the GAL4 DNA Binding Domain (GAL4 DBD) and the renilla luciferase gene under control of the SV40 promoter. Renilla luciferase expression serves as a control for transfection efficiency and cell viability.
The reporter assay was performed by transiently transfecting HEK293T cells with 5 ng of pBIND-RORγt LBD or pBIND-RORγt LBD-AF2 and 5 μg pGL4.31 (Promega Cat no. C935A) using Fugene 6 ([…] Cat no. E2691) at a 1:6 ratio of DNA: Fugene 6 in a T-75 flask in which cells were at least 80% confluent. Twenty four hours after bulk transfection, cells were plated into 96-well plates at 50,000 cells/well in phenol-red free DMEM containing 5% Lipid Reduced FCS and Pen/Strep. Six hours after plating, cells were treated with compounds for 24 hours. Media was removed and cells were lysed with 50 μL 1× Glo Lysis Buffer (Promega). Dual Glo Luciferase Reagent (50 μL/well) was then added and firefly luciferase luminescence was read on an Envision after a ten minute incubation. Finally, Stop and Glo reagent (50 μL/well) was added and renilla luciferase luminescence was read on an Envision after a ten minute incubation. To calculate the effect of compounds on RORγt activity, the ratio of firefly to renilla luciferase was determined and plotted against compound concentration. Agonist compounds increase RORγt-driven luciferase expression, and antagonist or inverse agonist compounds decrease luciferase expression.
For orientation: Reporter assays use an easily measured gene product as a stand-in for the process of interest.

Where a name gives a salt, the structure may show the parent alone.

The IC50 is the concentration at which inhibition is half-maximal. Usually inhibition stands for the change of the read-out against control, counted positive when it falls.

Consider `Cn1cncc1C(O)(c1ccc(Cl)cc1)c1ccc2nc(C#N)c(Cc3ccc(-n4cccn4)cc3)c(C#N)c2c1` (stereo not drawn) [Example 71A, 3-(4-(1H-Pyrazol-1-yl)benzyl)-6-((4-chlorophenyl)(hydroxy)(1-methyl-1H-imidazol-5-yl)methyl)quinoline-2,4-dicarbonitrile], for which half-maximal inhibition (IC50) was put at 0.11 µM and the inhibition at 6 µM came out at 97%.

In the case of `COc1ccc(C(O)(c2ccc3nc(Cl)c(Cc4ccc(-n5cccn5)cc4)c(Cl)c3c2)c2cncn2C)cn1` (stereo not drawn) [Example 21, (3-(4-(1H-Pyrazol-1-yl)benzyl)-2,4-dichloroquinolin-6-yl)(6-methoxypyridin-3-yl)(1-methyl-1H-imidazol-5-yl)methanol.TFA], the inhibition at 6 µM came to 103%.

With `COc1nc2ccc(C(O)(c3ccc(C)nc3C)c3cnnn3C)cc2c(Cl)c1Cc1ccc(C(F)(F)F)cc1` (stereo not drawn) [Example 77A, (4-Chloro-2-methoxy-3-(4-(trifluoromethyl)benzyl)quinolin-6-yl)(2,6-dimethylpyridin-3-yl)(1-methyl-1H-1,2,3-triazol-5-yl)methanol], the inhibition at 6 µM turned out to be 103%.

In the case of `CCc1nc2ccc(C(O)(c3cnnn3C)C3CN(S(C)(=O)=O)C3)cc2c(Cl)c1Cc1ccc(C(F)(F)F)cc1` (stereo not drawn) [Example 91A, (4-Chloro-2-ethyl-3-(4-(trifluoromethyl)benzyl)quinolin-6-yl)(1-methyl-1H-1,2,3-triazol-5-yl)(1-(methylsulfonyl)azetidin-3-yl)methanol], the inhibition at 6 µM turned out to be 100%.

`COc1nc2ccc(C(O)(c3ccc(C(F)(F)F)nc3)c3cncn3C)cc2c(Cl)c1Cc1ccc(S(C)(=O)=O)cc1` (stereo not drawn) [Example 53, (4-Chloro-2-methoxy-3-(4-(methylsulfonyl)benzyl)quinolin-6-yl)(1-methyl-1H-imidazol-5-yl)(6-(trifluoromethyl)pyridin-3-yl)methanol]: it took 0.046 µM to reach half-maximal inhibition (IC50) and the inhibition at 6 µM worked out at 101%.

With `OC(c1cccnc1)(c1cccc(Cl)c1)c1ccc2nc(Cl)c(Cc3ccc(Cl)cc3)c(Cl)c2c1` (stereo not drawn) [Example 2, (3-Chlorophenyl)-(2,4-dichloro-3-(4-chlorobenzyl)quinolin-6-yl)-(pyridin-3-yl)methanol.TFA], the IC50 stood at 0.05 µM and the inhibition at 6 µM amounted to 70%.

`COc1nc2ccc(C(O)(c3cnnn3C)c3cnc(C)n3C)cc2c(Cl)c1Cc1ccc(C(F)(F)F)cc1` (stereo not drawn) [Example 80A, (4-Chloro-2-methoxy-3-(4-(trifluoromethyl)benzyl)quinolin-6-yl)(1,2-dimethyl-1H-imidazol-5-yl)(1-methyl-1H-1,2,3-triazol-5-yl)methanol]: the inhibition at 6 µM was determined as 103%.

`COc1nc2ccc(C(O)(c3ccc(C)nc3C)c3cnnn3C)cc2c(C#N)c1Cc1ccc(C(F)(F)F)cc1` (single isomer, unassigned) [Example 78B, 6-((2,6-Dimethylpyridin-3-yl)(hydroxy)(1-methyl-1H-1,2,3-triazol-5-yl)methyl)-2-methoxy-3-(4-(trifluoromethyl)benzyl)quinoline-4-carbonitrile]: the inhibition at 6 µM turned out to be 94%.

In the case of `COc1nc2ccc(C(O)(c3ccc(Cl)cc3)c3cncn3C)cc2c(Cl)c1Cc1ccc(-n2cncn2)cc1` (single isomer, unassigned) [Example 64B, (3-(4-(1H-1,2,4-triazol-1-yl)benzyl)-4-chloro-2-methoxyquinolin-6-yl)(4-chlorophenyl)(1-methyl-1H-imidazol-5-yl)methanol], the inhibition at 6 µM was 101%.

Turning to `COc1nc2ccc(C(O)(c3ccc(Cl)cc3)c3cncn3C)cc2c(Cl)c1Cc1ccc(-n2cncn2)cc1` (stereo not drawn) [Example 64A, (3-(4-(1H-1,2,4-Triazol-1-yl)benzyl)-4-chloro-2-methoxyquinolin-6-yl)(4-chlorophenyl)(1-methyl-1H-imidazol-5-yl)methanol], the inhibition at 6 µM turned out to be 99%.

`OC(c1cccnc1)(c1cccc(Cl)c1)c1ccc2nc(Cl)c(Cc3ccc(F)cc3)c(Cl)c2c1` (stereo not drawn) [Example 3, (3-Chlorophenyl)-(2,4-dichloro-3-(4-fluorobenzyl)quinolin-6-yl)-(pyridin-3-yl)methanol.TFA]: the IC50 was greater than 6 µM and the inhibition at 6 µM amounted to 30%.

(Values after patent US9290476B2, “Methylene linked quinolinyl modulators of RORγt” (Janssen Pharmaceutica NV, priority 2012, dated 2016).)
